# Experimental data: patent EP4806891A1 (Kangbaida (Sichuan) Biotechnology Co., Ltd., priority 2023, dated 2025)
# pIC50: −log10 of the molar value.
# Target: T1, HEK-Blue-hTLR9 cells (Homo sapiens, UniProt Q9NR96)
# T1 construct: expressed in transfected cells; host or cells: HEK-Blue-hTLR9 cells (HEK293-derived reporter line)
# T1 sequence (Q9NR96 26-1032): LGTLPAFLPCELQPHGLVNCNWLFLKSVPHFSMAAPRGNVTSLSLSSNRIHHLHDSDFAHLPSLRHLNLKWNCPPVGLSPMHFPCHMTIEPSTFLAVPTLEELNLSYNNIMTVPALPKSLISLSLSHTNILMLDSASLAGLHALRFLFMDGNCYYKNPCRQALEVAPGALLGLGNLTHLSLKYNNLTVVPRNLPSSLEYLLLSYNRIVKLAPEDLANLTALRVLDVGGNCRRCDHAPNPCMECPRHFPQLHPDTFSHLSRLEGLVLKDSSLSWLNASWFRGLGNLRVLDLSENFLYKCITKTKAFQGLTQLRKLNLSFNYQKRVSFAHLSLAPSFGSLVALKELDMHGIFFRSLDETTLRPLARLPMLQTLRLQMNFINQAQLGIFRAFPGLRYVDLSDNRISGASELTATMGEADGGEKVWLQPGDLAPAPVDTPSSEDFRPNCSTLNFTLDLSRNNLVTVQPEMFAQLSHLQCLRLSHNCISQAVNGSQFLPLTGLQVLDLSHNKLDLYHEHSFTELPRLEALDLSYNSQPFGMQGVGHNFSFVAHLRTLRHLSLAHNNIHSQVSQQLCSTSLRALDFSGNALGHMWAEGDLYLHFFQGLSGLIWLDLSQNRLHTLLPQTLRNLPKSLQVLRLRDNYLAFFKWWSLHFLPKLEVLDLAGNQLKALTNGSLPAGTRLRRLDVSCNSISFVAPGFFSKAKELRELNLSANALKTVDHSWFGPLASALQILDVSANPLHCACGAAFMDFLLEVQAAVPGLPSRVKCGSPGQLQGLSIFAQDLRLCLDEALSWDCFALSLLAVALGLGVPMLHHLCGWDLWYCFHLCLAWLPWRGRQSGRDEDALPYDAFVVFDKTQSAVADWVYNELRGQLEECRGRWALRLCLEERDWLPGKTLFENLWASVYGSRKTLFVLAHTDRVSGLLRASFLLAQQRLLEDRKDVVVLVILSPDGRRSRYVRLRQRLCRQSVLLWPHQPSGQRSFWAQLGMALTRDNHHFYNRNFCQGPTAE
# Assay: HEK-Blue-hTLR9 cell inhibition assay
# Format: cell-based
# Details: ODN2006 1 µM, 16 h, OD 620 nm, read-out: TLR9 IC50
# Protocol: HEK-Blue-hTLR7/8/9 cell inhibition assay
# 1. HEK-Blue-hTLR7/8 cells (1 × 10^4 cells/well) and HEK-Blue-hTLR9 cells (1.5 × 10^4 cells/well) were seeded in a 384-well cell culture plate, with a volume of 30 µL per well. The plate was incubated at 37°C in a 5% CO2 incubator for 4 h. 2. The compound was prepared with DMSO and diluted in DMEM medium to 10 concentrations (1:3 dilution), with final concentrations of 10000, 3333.3, 1111.1, 370.4, 123.5, 41.2, 13.7, 4.6, 1.5, and 0.5 nM; R848 was prepared with DMSO and diluted in DMEM medium, with final concentrations of 0.8 µM (HEK-Blue-hTLR7) and 3 µM (HEK-Blue-hTLR8); ODN2006 was prepared with endotoxin-free water and diluted in DMEM medium, with a final concentration of 1 µM. 3. Cells treated with DMSO were used as the blank control group, while cells treated solely with Resiquimod (R848) were used as the positive control group for HEK-Blue-hTLR7/8, and cells treated solely with ODN2006 were used as the positive control group for HEK-Blue-hTLR9. Cells treated with the test compound together with R848 or ODN2006 were used as the test group. Two parallel wells were set for each group and were placed at 37°C in a 5% CO2 incubator for incubation. 4. After being incubated for 4 h, the 384-well plate of HEK-Blue-hTLR7/8 was taken out from the incubator, and R848 alone or both R848 and the diluted compound were separately added into each well. The plate was placed at 37°C in a 5% CO2 incubator for incubation for 16 h; the 384-well plate of HEK-Blue-hTLR9 was taken out from the incubator, and ODN2006 alone or both ODN2006 and the diluted compound were added separately to each well. The plate was incubated at 37°C in a 5% CO2 incubator for 16 h. 5. After being incubated for 16 h, the 384-well plate was removed from the incubator and centrifuged at 1000 rpm for 1 minute. The optical density value of each well at 620 nm was measured using a multifunctional microplate reader. 6. The cell inhibition rate was calculated as (1-(OD620 test group-OD620 blank group)/(OD620 positive group-OD620 blank group))×100%, and the half maximal inhibitory concentration (IC50) was calculated through curve fitting. Table 1: Activity of the compounds of the present disclosure in HEK-Blue-hTLR7/8/9 cellular assays
row,pIC50,SMILES
1,< 5.00,"N#Cc1ccc(N2C[C@]3(c4nnc([C@H]5CN(CC(N)=O)CCO5)o4)C[C@]3(C(F)(F)F)C2)c2cccnc12 [Compound 56, 2-((R)-2-(5-((1S,5R)-3-(8-cyanoquinolin-5-yl)-5-(trifluoromethyl)-3-azabicyclo[3.1.0]hexan-1-yl)-1,3,4-oxadiazol-2-yl)morpholino)acetamide]"
2,< 5.00,"CN1CCC(c2nnc([C@]34CN(c5ccc(C#N)c6ncnn56)C[C@@]3(C(F)(F)F)C4)o2)CC1 [Compound 91, 5-((1S,5R)-1-(5-(1-methylpiperidin-4-yl)-1,3,4-oxadiazol-2-yl)-5-(trifluoromethyl)-3-azabicyclo[3.1.0]hexan-3-yl)-[1,2,4]triazolo[1,5-a]pyridine-8-carbonitrile]"
3,< 6.00,"CN1CC2(CCC(c3nnc([C@]45CN(c6ccc(C#N)c7ncccc67)C[C@@]4(C(F)(F)F)C5)o3)CC2)C1 [Compound 13, 5-((1S,5R)-1-(5-(2-methyl-2-azaspiro[3.5]nonan-7-yl)-1,3,4-oxadiazol-2-yl)-5-(trifluoromethyl)-3-azabicyclo[3.1.0]hexan-3-yl)quinoline-8-carbonitrile]"
4,< 6.00,"CN1CC2(CC(c3nnc([C@]45CN(c6ccc(C#N)c7ncccc67)C[C@@]4(C(F)(F)F)C5)o3)C2)C1 [Compound 19, 5-((1S,5R)-1-(5-(2-methyl-2-azaspiro[3.3]heptan-6-yl)-1,3,4-oxadiazol-2-yl)-5-(trifluoromethyl)-3-azabicyclo[3.1.0]hexan-3-yl)quinoline-8-carbonitrile]"
5,< 6.00,"CN1CCC(c2nnc([C@]34CN(c5ccc(C#N)c6ncccc56)C[C@@]3(C(F)(F)F)C4)[nH]2)CC1 [Compound 9, 5-((1S,5R)-1-(5-(1-methylpiperidin-4-yl)-4H-1,2,4-triazol-3-yl)-5-(trifluoromethyl)-3-azabicyclo[3.1.0]hexan-3-yl)quinoline-8-carbonitrile]"
6,< 5.00,"N#Cc1ccc(N2C[C@]3(c4nnc(C5CNCC(F)C5)o4)C[C@]3(C(F)(F)F)C2)c2cccnc12 (stereo partly drawn) [Compound 45, 5-((1R,5S)-1-((difluoro-3-methyl)-12-fluoraneyl)-5-(5-(5-fluoropiperidin-3-yl)-1,3,4-oxadiazol-2-yl)-3-azabicyclo[3.1.0]hexan-3-yl)quinoline-8-carbonitrile]"

row,SMILES,pIC50
1,"CN(C)CCc1nnc([C@]23CN(c4ccc(C#N)c5ncccc45)C[C@@]2(C(F)(F)F)C3)o1 [Compound 51, 5-((1S,5R)-1-(5-(2-(dimethylamino)ethyl)-1,3,4-oxadiazol-2-yl)-5-(trifluoromethyl)-3-azabicyclo[3.1.0]hexan-3-yl)quinoline-8-carbonitrile]",< 5.00
2,"CN1[C@@H]2CC[C@H]1C[C@H](c1nnc([C@]34CN(c5ccc(C#N)c6ncccc56)C[C@@]3(C(F)(F)F)C4)o1)C2 [Compound 11, 5-((1S,5R)-1-(5-((1R,3S,5S)-8-methyl-8-azabicyclo[3.2.1]octan-3-yl)-1,3,4-oxadiazol-2-yl)-5-(trifluoromethyl)-3-azabicyclo[3.1.0]hexan-3-yl)quinoline-8-carbonitrile]",< 6.00
3,"N#Cc1ccc(N2C[C@]3(c4nnc([C@H]5CC[C@H](N)CC5)o4)C[C@]3(C(F)(F)F)C2)c2cccnc12 [Compound 20, 5-((1S,5R)-1-(5-((1R,4S)-4-aminocyclohexyl)-1,3,4-oxadiazol-2-yl)-5-(trifluoromethyl)-3-azabicyclo[3.1.0]hexan-3-yl)quinoline-8-carbonitrile]",< 6.00
4,"N#Cc1ccc(N2C[C@]3(c4nnc(C5=CCNC5)o4)C[C@]3(C(F)(F)F)C2)c2cccnc12 [Compound 22, 5-((1S,5R)-1-(5-(2,5-dihydro-1H-pyrrol-3-yl)-1,3,4-oxadiazol-2-yl)-5-(trifluoromethyl)-3-azabicyclo[3.1.0]hexan-3-yl)quinoline-8-carbonitrile]",< 5.00
